Source: patent publication US10654835B2, “Compounds and methods for inhibiting JAK” (Dizal (Jiangsu) Pharmaceutical Co., Ltd., priority 2015, dated 2020)
“Also recorded” adds a separate entry of the source. Values belong to the molecule of their own block, whether it stands above or below them.

Key:
pSTAT3 (Y705) [1] = experiment: pSTAT3 knockdown in PC-9 tumors (Example 70); format: in vivo, mice; conditions: gefitinib + Example 32 12.5 and 50 mg/kg BID; 2, 8 and 24 hours after the AM dose, last day
Method: (§1) Tumor volume was measured twice a week.

[2] = Drug levels in plasma, H1975 xenograft mice (Example 69); format: in vivo; conditions: increasing dose of Example 32, one day of treatment
Method: (§2) Materials and Methods: NCI-H1975 cells (a human NSCLC cell line with L858R and T790M mutations in the EGFR gene) tumor cells were implanted subcutaneously in female NCr nude mice (Taconic Laboratories), 3×10^6 cells/mouse. […] Drug levels in plasma were measured by LC/MS, using a Linear Ion Trap Quadrupole LC/MS/MS Mass Spectrometer (QTRAP 5500 model 1024945-BB, AB Sciex Instruments), with separation on a Waters Xbridge C18 column.

pSTAT3 = pSTAT3 knockdown in NCI-H1650 tumors (Example 71); format: in vivo, mice; conditions: Example 32 as single agent and in combination with gefitinib, after one day of treatment
Method: as §1
(§3) Twenty-three days after cell implantation, the mice were randomized into 6 groups (9 mice/group, average tumor volume 257 mm^3, range 205-303 mm^3). […] Drug levels in plasma were measured by LC/MS, using a Linear Ion Trap Quadrupole LC/MS/MS Mass Spectrometer (QTRAP 5500 model 1024945-BB, AB Sciex Instruments), with separation on a Waters Xbridge C18 column.

pSTAT3 (Y705) [3] = experiment: pSTAT3 knockdown in NCI-H1975 tumors (Example 69); format: in vivo, mice; conditions: Example 32 12.5, 25, 50 mg/kg BID, after one day of treatment
Method: as §1, §2

pSTAT3 (Y705) [4] = experiment: pSTAT3 knockdown in LG1049 tumors (Example 72); format: in vivo, mice; conditions: Example 32 25 mg/kg BID, 5 days of treatment, 4H after the final dose
Method: as §1

[5] = test system: LG1049 non-small cell lung cancer PDX tumor xenografts; experiment: LG1049 xenograft PDX model, antitumor activity (Example 72); format: in vivo, mice; conditions: for tumor regrowth when treatment was stopped after 28 days: osimertinib single agent or osimertinib + Example 32
Method: Summary: LG1049 non-small cell lung cancer PDX tumor xenografts were grown subcutaneously in female NSG mice. […] Tumor volume was measured twice a week.

[6] = test system: NCI-H1650 tumor xenografts; experiment: H1650 xenograft model, antitumor activity (Example 71); format: in vivo, mice
Method: as §1, §3

PC-9 tumor xenografts = experiment: PC-9 xenograft model, antitumor activity (Example 70); format: in vivo, mice
Method: as §1

[7] = test system: NCI-H1975 tumor xenografts; experiment: H1975 xenograft model, intermittent Example 32 dosing schedules, antitumor activity (Example 73); format: in vivo, mice
Method: as §1
Materials and Methods: NCI-H1975 cells (a human NSCLC cell line with L858R and T790M mutations in the EGFR gene), were implanted subcutaneously in female NCr nude mice (Taconic Laboratories), 3×10^6 cells/mouse.

[8] = test system: NCI-H1975 tumor xenografts; experiment: H1975 xenograft model, antitumor activity (Example 69); format: in vivo, mice
Method: as §1
Materials and Methods: NCI-H1975 cells (a human NSCLC cell line with L858R and T790M mutations in the EGFR gene) tumor cells were implanted subcutaneously in female NCr nude mice (Taconic Laboratories), 3×10^6 cells/mouse.

[9] = LG1049 xenograft PDX model, body weight (Example 72); format: in vivo, mice
Excerpt: Materials and Methods: LG1049 tumor fragments were implanted subcutaneously in female NSG mice (JAX Stock No. 005557). Once tumor volumes reached ˜125-275 mm^3, mice were randomized into 5 groups (10 mice/group, average tumor volume 189 mm^3, range 138-253 mm^3).

pEGFR = pEGFR knockdown in LG1049 tumors (Example 72); format: in vivo, mice; conditions: osimertinib 25 mg/kg QD, 5 days of treatment, 4H after the final dose

level of Example 32 in plasma [2]: increasing level of Example 32 in plasma
Structure (SMILES): COc1nn(C)cc1Nc1nccc(-c2c[nH]c3c(NC(=O)[C@@H](C)N4CCN(C)CC4)cccc23)n1 [Example 32, (2R)-N-(3-{2-[(3-methoxy-1-methyl-1H-pyrazol-4-yl)amino]pyrimidin-4-yl}-1H-indol-7-yl)-2-(4-methylpiperazin-1-yl)propanamide]
pSTAT3 knockdown in tumors (pSTAT3 (Y705) [1]): dose dependent increase in the duration of pSTAT3 knockdown | pSTAT3 knockdown in tumors (pSTAT3): Knockdown of pSTAT3 was observed | pSTAT3 knockdown in tumors (pSTAT3 (Y705) [3]): dose dependent increase in pSTAT3 knockdown | knockdown of pSTAT3 in tumors (pSTAT3 (Y705) [4]): robust knockdown | tumor regrowth when Example 32 treatment was continued after 28 days of combination ([5]; Example 32 25 mg/kg BID alone 3 days on/4 days off/wk after the combination): tumors also regrew, but more slowly | antitumor activity, single agent Example 32, relative to vehicle ([5]; Example 32 25 mg/kg BID oral, 18 days): no significant antitumor activity; also recorded: no significant activity relative to vehicle control treatment | tumor regression, combination with osimertinib compared to osimertinib alone ([5]; osimertinib 25 mg/kg QD + Example 32 25 mg/kg BID (7 days, then 3 days on/4 days off/wk), 28 days): enhanced the tumor regression induced by osimertinib | tumor regrowth when treatment was stopped after 28 days [5]: tumors rapidly regrew | antitumor activity, single agent ([6]; Example 32 25 or 50 mg/kg BID oral, 21 days): only modest antitumor activity | antitumor activity of combination with gefitinib compared to single agent gefitinib ([6]; gefitinib 6.25 mg/kg QD + Example 32 25 or 50 mg/kg BID, 21 days): enhanced the antitumor activity of gefitinib | dose dependence of the enhancement of antitumor activity ([6]; gefitinib + Example 32 from 25 mg/kg to 50 mg/kg): increased with increasing dose of Example 32 | antitumor activity of combination with gefitinib compared to gefitinib (PC-9 tumor xenografts; gefitinib 6.25 mg/kg QD + Example 32, oral, 21 days): enhanced the antitumor activity of gefitinib | activity of combination compared to single agent gefitinib (PC-9 tumor xenografts; gefitinib + 12.5 mg/kg Example 32 daily, and + 50 mg/kg Example 32 2 days on/5 days off): greater activity than single agent gefitinib, but did not quite achieve statistical significance | dose dependence of the enhancement of antitumor activity (PC-9 tumor xenografts; gefitinib + Example 32 from 12.5 mg/kg to 50 mg/kg): increased with increasing dose of Example 32 | antitumor activity, single agent, relative to vehicle ([7]; Example 32 50 mg/kg BID oral, 19 days): no significant activity relative to vehicle control treatment | dose dependence of the enhancement of antitumor activity ([7]; Example 32 50 mg/kg BID vs. 25 mg/kg BID with osimertinib): greater at the higher dose of Example 32 | statistical significance of the difference, combination vs. osimertinib alone ([7]; after 26 days of treatment): statistically significant after 26 days of treatment at all schedules of Example 32, with the exception of the groups in which Example 32 was dosed only for the first 7 days | enhancement of osimertinib activity by schedule intensity of Example 32 (rank order) ([7]; osimertinib 2.5 mg/kg QD + Example 32): daily>4 on/3 off>7 on/7 off>2 on/5 off>just first 7 days | antitumor activity of combination with osimertinib compared to osimertinib alone ([7]; osimertinib 2.5 mg/kg QD + Example 32, continuous and intermittent schedules): enhanced the antitumor activity of osimertinib | antitumor activity, single agent, relative to vehicle ([8]; Example 32 12.5, 25 or 50 mg/kg BID oral, 18 days): no significant antitumor activity; also recorded: only weak antitumor activity | dose dependence of the enhancement of antitumor activity ([8]; osimertinib 2.5 mg/kg QD + Example 32 12.5 mg/kg up to 50 mg/kg): increased with increasing dose of Example 32 | antitumor activity of combination with osimertinib compared to osimertinib alone ([8]; osimertinib 2.5 mg/kg QD + Example 32 12.5, 25 or 50 mg/kg BID oral, 18 days): enhanced the antitumor activity of osimertinib | weight loss, single agent ([9]; mouse, in vivo): significant weight loss

Structure (SMILES): C=CC(=O)Nc1cc(Nc2nccc(-c3cn(C)c4ccccc34)n2)c(OC)cc1N(C)CCN(C)C [osimertinib, reference compound]
antitumor activity, single agent osimertinib ([5]; osimertinib 25 mg/kg QD oral, 28 days): tumor regression | tumor regrowth when treatment was stopped after 28 days [5]: tumors rapidly regrew | weight loss, single agent ([9]; LG1049 tumor bearing NSG mice, weight loss ascribed to tumor growth): lack of significant weight loss | knockdown of pEGFR in tumors (pEGFR): robust knockdown
